Among the data in ChEMBL document CHEMBL1124856, “Extension of a redox-based chemical delivery system to alpha, beta-unsaturated ketones” (J Med Chem, 1990) are Correlation coefficient, half-life and T1/2 values, retold here.

Where “and” joins values, the source holds several entries; their conditions need not be identical. Equal entries are not always repeated.

Data set [1] is filed under the species Rattus norvegicus. Kind of data set: In vitro rate constant, correlation coefficient for the conversion to progesterone in rat liver homogenate. In kind it is ADME.
For data set [2], the species on record is Rattus norvegicus. In words: In vitro rate constant, correlation coefficient for the conversion to progesterone in whole rat blood. In kind it is ADME, organism-based.
The species entered for data set [3] is Rattus norvegicus. In words: In vitro rate constant, correlation coefficient for the disappearance in rat brain homogenate. In kind it is ADME.
The nature of data set [4]: Half-life for the disappearance in rat brain homogenate. In kind it is ADME.
The nature of data set [5]: Half-life for the disappearance in rat liver homogenate. In kind it is ADME.
Data set [6] is filed under the species Homo sapiens. Kind of data set: Half-life for the disappearance in whole human blood; Stable. The following applies: in vitro. Format: ADME, organism-based.
The species named for data set [7] is Rattus norvegicus. Kind of data set: In vitro rate constant, correlation coefficient for the disappearance in rat liver homogenate. Format: ADME.
Data set [8] is filed under the species Homo sapiens. Kind of data set: In vitro rate constant, correlation coefficient for the disappearance in whole human blood; Stable.

As for `CC(=O)C1CCC2C3CC=C4C=C(OC(=O)c5ccc[n+](C)c5)CCC4(C)C3CCC12C.[I-]` (stereo not drawn), the Correlation coefficient in data set [1] is 0.996 and 0.994; in data set [2], 0.998.

Turning to `CC(=O)C1CCC2C3CC=C4C=C(OC(=O)C5=CN(C)C=CC5)CCC4(C)C3CCC12C` (stereo not drawn), the values for the Correlation coefficient in data set [3] and in data set [7] were 0.98 and 0.999, respectively. The results for the half-life in data set [4] and in data set [5] were 1.77 h and 0.267 h, respectively. In addition, the T1/2 entry in data set [6] and in data set [8] was “Stable” each time.
